In brackets after ≈: the same amount, converted by molar mass. Several values for one entry are separate records, joined by “and”; a condition that tells them apart may be missing. Equal values may be shown once. Read-outs that look alike come from different tables or passages of the source.
Assays:
[1] = system: Treponema hyodysenteriae 78/A strain; assay: efficacy against swine dysentery under experimental infection conditions in pigs (drug in feed), Test Examples 5-7; type: in vivo, Landrace pigs; conditions: 50 ppm in feed
Experimental: Lankacidin C was tested for efficacy against swine dysentery under experimental infection conditions. Thus, twelve 6-week-old Landrace pigs (4 per group) were used. The test drug was admixed to a concentration of 100 ppm with the domestically formulated starter feed for young pigs without antibiotics. The animals were provided with the ration ad libitum. Infection of the pigs was effected by direct intragastrical administration to the SPF pigs of an inoculum prepared by preliminary anaerobic cultivation of the Treponema hyodysenteriae 78/A strain on a 5% horse blood added agar plate, mashing together with the culture medium and admixing with 5% mucin added phosphate buffer. Colonic contents and mucosa were collected from pigs which developed typical signs of swine dysentery, and diluted two-fold with 5% mucin added phosphate buffer. The dilution was used as the final inoculum, and 100 ml of the dilution was directly injected into the stomach of test pigs at the age of 7 weeks (fasted for 24 hours before infection). The pigs were fed for 21 days following infection.
The data are each the mean value per head for the 21day period from
infection to autopsy. Different alphabetic letters on the same line
indicate that there is a significant difference between the data to which
they are attached (P <0.05).
Lankacidin C was tested at concentrations in feed of 100 ppm and lower by the same method as in Test Example 5, with carbadox, a commonly used anti-swine-dysentery agent, for comparison.
The anti-swine-dysentery effects of 10 ppm each of lankacidin A and lankacidin C 14-propionate were examined by the procedure of Test Example 6.

Treponema hyodysenteriae = assay: in vitro antibacterial activity (MIC, agar dilution method), Test Examples 1-3; type: cell-based; conditions: Brachyspira hyodysenteriae, 48 h, 37° C., 2 days, anaerobic
Experimental: Several agents were tested for in vitro antibacterial activity against Treponema hyodysenteriae, the pathogenic bacteria causing swine dysentery, by the method of testing drug sensitivity of Treponema hyodysenteriae (Kashiwazaki et al. Abstracts of Papers presented at the 82nd Meeting of the Japanese Society of Veterinary Science, page 101, 1976).
(1) Strains: These strains belong to Treponema hyodysenteriae isolated
from the bloody mucous faeces of dysenteric pigs in Japan.
(2) Antimicrobial activity assay: Agar dilution method
(3) Inoculum size: A loopful of bacterial suspension (10^6 CFU/ml)
(4) Cultural conditions: GasPak anaerobic system (BBL), 37° C., 2
Typical agents among compound (I) were tested for in vitro antibacterial activity by the same method as in Test Example 1.
The experimental conditions are the same as in Test Example 1 (Table 1).
Agents of compound (I) were tested for in vitro antibacterial activity by the same method as in Test Example 1.

[2] = strain 78/A, read-out: Minimum Inhibitory Concentration
[3] = strain CD1 (CD-1), read-out: Minimum Inhibitory Concentration
[4] = strain DJ70P1, read-out: Minimum Inhibitory Concentration
[5] = strain MK-2, read-out: Minimum Inhibitory Concentration

SMILES | MIC (Treponema hyodysenteriae; [2]) [µg/mL] | MIC (Treponema hyodysenteriae; [3]) [µg/mL] | MIC (Treponema hyodysenteriae; [4]) [µg/mL] | MIC (Treponema hyodysenteriae; [5]) [µg/mL] | other results
COC(=O)N/N=C/c1c[n+]([O-])c2ccccc2[n+]1[O-] [Carbadox, carbadox, reference compound] | – | – | – | – | Number of pigs from which the pathogen was detected, in colonic mucosa [1]: 0; Number of pigs from which the pathogen was detected, in feces [1]: 0; Number of pigs showing colonic lesions [1]: 0; Number of days on which mucous bloody stool was observed ([1]; 21-day test period): 0 days; Number of pigs showing signs of infection/number of pigs used ([1]; 21-day test period): 0/4; Body weight gain ([1]; 21 day period, mean per head): 473 grams/day and 552 grams/day; Feed conversion ([1]; 21 day period, mean per head): 2.08 and 1.83; Feed intake ([1]; 21 day period, mean per head): 20.7 kg and 21.2 kg; Body weight at the time of completion of test ([1]; mean per head): 21.0 kg and 22.7 kg
CC[C@H]1OC(=O)[C@H](C)[C@@H](O[C@H]2C[C@@](C)(OC)[C@@H](O)[C@H](C)O2)[C@H](C)[C@@H](O[C@@H]2O[C@H](C)C[C@H](N(C)C)[C@H]2O)[C@](C)(O)C[C@@H](C)C(=O)[C@H](C)[C@@H](O)[C@]1(C)O [Erythromycin, reference compound] | – | – | – | – | MIC (Treponema hyodysenteriae; read-out: Minimum Inhibitory Concentration, strain 78/A): > 100 µg/mL; MIC (Treponema hyodysenteriae; read-out: Minimum Inhibitory Concentration, strain CD1 (CD-1)): > 100 µg/mL; MIC (Treponema hyodysenteriae; read-out: Minimum Inhibitory Concentration, strain DJ70P1): > 100 µg/mL; MIC (Treponema hyodysenteriae; read-out: Minimum Inhibitory Concentration, strain MK-2): > 100 µg/mL
CCC(=O)OC1C=CC(C)=CC(NC(=O)C(C)=O)C2(C)C(=O)OC(CC(OC(C)=O)C=CC(C)=CC1)C(C)C2=O (stereo not drawn) [Lankacidin A 8-propionate, lankacidin A 8-propionate] | 6.25 (≈ 11.2 µM) | 6.25 (≈ 11.2 µM) | 6.25 (≈ 11.2 µM) | 6.25 (≈ 11.2 µM) | –
CC(=O)OC1C=CC(C)=CC(NC(=O)C(C)=O)C2(C)C(=O)OC(CC(OC(C)=O)C=CC(C)=CC1)C(C)C2=O (stereo not drawn) [Lankacidin C 8,14-diacetate, lankacidin C 8,14-diacetate] | 3.13 (≈ 5.76 µM) | 3.13 (≈ 5.76 µM) | 3.13 (≈ 5.76 µM) | 1.56 (≈ 2.87 µM) | –
CCCC(=O)OC1C=CC(C)=CC(NC(=O)C(C)=O)C2(C)C(=O)OC(CC(OC(=O)CCC)C=CC(C)=CC1)C(C)C2=O (stereo not drawn) [Lankacidin C 8,14-dibutyrate] | 1.56 (≈ 2.6 µM) | 3.13 (≈ 5.22 µM) | 3.13 (≈ 5.22 µM) | 3.13 (≈ 5.22 µM) | –
CCC(=O)OC1C=CC(C)=CC(NC(=O)C(C)=O)C2(C)C(=O)OC(CC(OC(=O)CC)C=CC(C)=CC1)C(C)C2=O (stereo not drawn) [Lankacidin C 8,14-dipropionate, lankacidin C 8,14-dipropionate] | 0.78 (≈ 1.36 µM) | 1.56 (≈ 2.73 µM) | 0.78 (≈ 1.36 µM) | 0.78 (≈ 1.36 µM) | –
CC(=O)C(=O)NC1C=C(C)C=CC(OC(=O)c2ccccc2)CC=C(C)C=CC(O)CC2OC(=O)C1(C)C(=O)C2C (stereo not drawn) [Lankacidin C 8-benzoate, lankacidin C 8-benzoate] | 0.1 (≈ 0.177 µM) | 0.1 (≈ 0.177 µM) | 0.1 (≈ 0.177 µM) | 0.1 (≈ 0.177 µM) | –
CCCC(=O)OC1C=CC(C)=CC(NC(=O)C(C)=O)C2(C)C(=O)OC(CC(O)C=CC(C)=CC1)C(C)C2=O (stereo not drawn) [Lankacidin C 8-butyrate] | 0.78 (≈ 1.47 µM) | 0.78 (≈ 1.47 µM) | 0.78 (≈ 1.47 µM) | 0.78 (≈ 1.47 µM) | –
CC(=O)C(=O)NC1C=C(C)C=CC(OC(=O)C(C)C)CC=C(C)C=CC(O)CC2OC(=O)C1(C)C(=O)C2C (stereo not drawn) [Lankacidin C 8-isobutyrate] | 6.25 (≈ 11.8 µM) | 6.25 (≈ 11.8 µM) | 3.13 (≈ 5.91 µM) | 6.25 (≈ 11.8 µM) | –
CCC(=O)OC1C=CC(C)=CC(NC(=O)C(C)=O)C2(C)C(=O)OC(CC(O)C=CC(C)=CC1)C(C)C2=O (stereo not drawn) [Lankacidin C 8-propionate, lankacidin C 8-propionate] | 1.56 (≈ 3.03 µM) | 1.56 (≈ 3.03 µM) | 1.56 (≈ 3.03 µM) | 1.56 (≈ 3.03 µM) | –

— patent publication US4425356A, “Lankacidin derivatives used in swine husbandry” (Takeda Chemical Industries, Ltd., priority 1980, dated 1984)
